Data from the supplement of paper PMC10307832.

Legend:
Experiment in all cases: relative viability (nuclei count vs DMSO), 5 days (fraction); higher = more cells survive
[1] = compound: CO[C@@H]1[C@H](N(C)C(=O)c2ccccc2)C[C@H]2O[C@]1(C)n1c3ccccc3c3c4c(c5c6ccccc6n2c5c31)C(=O)NC4 [Midostaurin] + CC(=O)c1c(C)c2cnc(Nc3ccc(N4CCNCC4)cn3)nc2n(C2CCCC2)c1=O [Palbociclib] (partner 0.5 µM)
Method in brief: (§1)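 Cells from lung cancer lines were seeded into 1536-well plates and, one day later, dosed by pin tool. Treatments were either a single drug or a fixed dose of an anchor drug with five library-drug doses (not always all listed) in √10 steps. After 5 days, nuclei were stained in a one-step fixation (final 0.05% Triton X-100, 1% formaldehyde, 1 ug/ml Hoechst) and counted on 4× images, and relative viability is the treated-to-vehicle nuclei ratio, as the median of duplicate plates.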

Midostaurin + Linsitinib = compound: CO[C@@H]1[C@H](N(C)C(=O)c2ccccc2)C[C@H]2O[C@]1(C)n1c3ccccc3c3c4c(c5c6ccccc6n2c5c31)C(=O)NC4 [Midostaurin] + C[C@]1(O)C[C@@H](c2nc(-c3ccc4ccc(-c5ccccc5)nc4c3)c3c(N)nccn32)C1 [Linsitinib] (partner 1 µM)
Method in brief: as §1

[2] = compound: COc1cc(-c2nn([C@H]3CC[C@H](N4CCN(C(C)=O)CC4)CC3)c3ncnc(N)c23)ccc1NC(=O)c1cc2ccccc2n1C + CC(=O)c1c(C)c2cnc(Nc3ccc(N4CCNCC4)cn3)nc2n(C2CCCC2)c1=O [Palbociclib] (partner 0.5 µM)
Method in brief: as §1

[3] = compound: COc1cc(-c2nn([C@H]3CC[C@H](N4CCN(C(C)=O)CC4)CC3)c3ncnc(N)c23)ccc1NC(=O)c1cc2ccccc2n1C + Cc1nc(NC(=O)N2CCC[C@H]2C(N)=O)sc1-c1ccnc(C(C)(C)C(F)(F)F)c1 [Alpelisib] (partner 2 µM)
Method in brief: as §1

[4] = compound: COc1cc(-c2nn([C@H]3CC[C@H](N4CCN(C(C)=O)CC4)CC3)c3ncnc(N)c23)ccc1NC(=O)c1cc2ccccc2n1C + N=C(N)NC(=N)NCCc1ccccc1 [Phenformin] (partner 250 µM)
Method in brief: as §1

Row | Cell Line | relative viability ([1]; first compound 0.01 µM) | relative viability ([1]; first compound 0.03162 µM) | relative viability ([1]; first compound 0.1 µM) | relative viability ([1]; first compound 0.3162 µM) | relative viability (Midostaurin + Linsitinib; first compound 0.01 µM) | relative viability (Midostaurin + Linsitinib; first compound 0.03162 µM) | relative viability (Midostaurin + Linsitinib; first compound 0.1 µM) | relative viability (Midostaurin + Linsitinib; first compound 0.3162 µM) | relative viability ([2]; first compound 0.0128 µM) | relative viability ([2]; first compound 0.04048 µM) | relative viability ([2]; first compound 0.128 µM) | relative viability ([2]; first compound 1.28 µM) | relative viability ([3]; first compound 0.0128 µM) | relative viability ([3]; first compound 0.04048 µM) | relative viability ([3]; first compound 0.128 µM) | relative viability ([3]; first compound 1.28 µM) | relative viability ([4]; first compound 0.0128 µM) | relative viability ([4]; first compound 0.04048 µM) | relative viability ([4]; first compound 0.128 µM) | relative viability ([4]; first compound 1.28 µM)
1 | 201T | 0.366 | 0.368 | 0.35 | 0.406 | 1.05 | 1 | 1.07 | 1.04 | 0.353 | 0.402 | 0.337 | 0.294 | 0.996 | 1.09 | 0.908 | 0.591 | 0.448 | 0.446 | 0.401 | 0.353
2 | A549 | – | – | – | – | 0.609 | 0.59 | 0.511 | 0.423 | – | – | – | – | 0.739 | 0.774 | 0.862 | 0.57 | 0.178 | 0.203 | 0.151 | 0.185
3 | A-427 | 0.486 | 0.566 | 0.513 | 0.508 | 1.14 | 1.08 | 1.09 | 1.09 | 0.544 | 0.554 | 0.551 | 0.521 | 1.15 | 0.959 | 1.01 | 0.908 | 0.335 | – | 0.268 | 0.254
4 | ABC-1 | 0.709 | 1.01 | 0.679 | 0.559 | 0.854 | 0.546 | 0.628 | 0.727 | 0.646 | 0.84 | 0.391 | 0.469 | 0.972 | 1.08 | 0.78 | 1 | 0.231 | 0.245 | 0.225 | 0.243
5 | BEN | 0.515 | 0.473 | 0.52 | 0.467 | 0.926 | 0.905 | 1.02 | 0.978 | 0.485 | 0.466 | 0.435 | 0.457 | 0.972 | 1.15 | 0.865 | 0.642 | 0.235 | 0.272 | 0.276 | 0.218
6 | CAL-12T | 0.513 | 0.492 | 0.405 | 0.308 | 0.721 | 0.672 | 0.808 | 0.676 | 0.485 | 0.277 | 0.459 | 0.24 | 1.32 | 1.25 | 1.34 | 0.998 | 0.588 | 0.465 | 0.572 | 0.416
7 | COR-L23 | 0.259 | 0.346 | 0.285 | 0.207 | 0.863 | 0.802 | 0.764 | 0.764 | 0.324 | 0.253 | 0.313 | 0.24 | 0.749 | 0.97 | 0.682 | 0.682 | 0.424 | 0.559 | 0.413 | 0.434
8 | COR-L 105 | 0.414 | 0.416 | 0.396 | 0.4 | 0.818 | 0.922 | 0.766 | 0.727 | 0.388 | 0.474 | 0.4 | 0.302 | 1.13 | 1.09 | 1.08 | 0.531 | 0.474 | 0.58 | 0.4 | 0.232
9 | Calu-6 | – | – | – | – | 0.946 | 0.889 | 1 | 0.922 | – | – | – | – | 0.927 | 0.936 | 0.943 | 0.829 | – | – | – | –
10 | ChaGo-K-1 | 0.912 | 1 | 0.889 | 0.935 | – | – | – | – | 0.925 | 0.985 | 0.873 | 0.668 | – | – | – | – | 0.472 | 0.491 | 0.417 | 0.431
11 | EBC-1 | – | – | – | – | 0.901 | 0.735 | 0.873 | 0.24 | – | – | – | – | 0.823 | 0.785 | 0.723 | 0.732 | – | – | – | –
12 | EKVX | 0.443 | 0.45 | 0.362 | 0.401 | 0.953 | 1.03 | 0.943 | 0.892 | 0.383 | 0.47 | 0.357 | 0.271 | 0.827 | 1.09 | 0.75 | 0.509 | 0.234 | 0.245 | 0.211 | 0.199
13 | EMC-BAC-2 | 0.489 | 0.531 | 0.489 | 0.456 | 0.84 | 0.777 | 0.669 | 0.765 | 0.551 | 0.582 | 0.528 | 0.514 | 0.749 | 0.743 | 0.696 | 0.514 | 0.563 | 0.633 | 0.499 | 0.422
14 | EPLC-272H | 0.291 | 0.355 | 0.302 | 0.3 | 1.08 | 1.11 | 1.17 | 1.22 | 0.352 | 0.327 | 0.337 | 0.301 | 0.976 | 1.09 | 0.923 | 0.765 | 0.46 | – | 0.27 | 0.282
15 | H3255 | 0.317 | 0.327 | 0.333 | 0.342 | 0.948 | 0.875 | 0.953 | 1 | 0.324 | 0.316 | 0.349 | 0.318 | 0.886 | 0.615 | 0.607 | 0.433 | 0.347 | 0.297 | 0.36 | 0.282
